“And” between values parts separate entries of the source, which are not always exact repeats. Equal entries are not always repeated.
Experiments:
Aedes aegypti mosquitoes = test: Arm in cage testing (Modified WHO - Nigel Hill protocol), dose response curves on human subjects, LDP line analysis; assay type: in vivo; conditions: for Index: ED50 comparison of LDP lines, lowest ED50 = 100; for RR: ED50 relative to the line with the lowest ED50
Description: A Modified WHO - Nigel Hill protocol was used for Dose Response curve generation. Three concurrent repetitions were conducted with 4 subjects (2 male, 2 female). Approximately 60 non blood-fed, female Aedes aegypti mosquitoes were placed in a 12"X12"X12" (28316.85 cm^3) plexi and screen cage.
Arms were inserted into the first cage for 30 seconds, with number of landings (with intent to bite) recorded at the end of the time interval. The same procedure was used for the 2nd and 3rd cage in succession. Control arm was inserted first, followed by the opposite arm treated with ethanol only (as a treatment control). The 'treatment arm' is then treated with dose 1 and inserted, then dose 2, dose 3, and so on. After complete protection was achieved, control arm was reinserted to verify continued activity.
Percent repellency was calculated by utilizing the formula [{(C-T)/C}*100]. Where C = the number of mosquitoes landing with intent to bite on the ethanol only treated arm, and T = the number of mosquitoes landing with intent to bite on the 'repellent' treated arm. LDP line® software (Bakr, E 2007) was used to determine ED50 (effective dose to repel 50%) and compare materials.
Following the Definition of Synergy (the interaction or cooperation of two or more organizations, substances, or other agents to produce a combined effect greater than the sum of their separate effects), an 'additive measure' was used to determine synergy in the laboratory testing, as well as in the human testing. […] Significance was determined by the use of 95% confidence intervals.
For human testing, the LDP Line software was used to determine "additive repellency" differences.

Aedes aegypti = test: Laboratory screening, modified K & D chamber (Gupta Box), treated blood-filled membrane wells; assay type: in vivo; conditions: adjusted, relative to control
Description: A modified K & D chamber or "Gupta Box" was used to screen 4 compounds plus an untreated control, simultaneously. Five replicates of 250 adult female mosquitoes each were placed in clear plastic cages (Gupta boxes) with access to five warmed, blood-filled, membrane-covered wells. The mosquitoes used were Aedes aegypti. Membranes were treated with repellent dilutions or diluent only. Five replicates were tested, rotating positions within the chamber. Each replicate used a fresh batch of mosquitoes, blood and treated membranes. The number of mosquitoes probing each well was recorded at two minute intervals for 20 minutes. The total numbers of probes on each well were tallied at the end of the observation period and the average percentage repellency relative to the control was calculated for each formulation. To compare formulations from different tests, the control probes were adjusted to 100 for each test and the formula then applied to each formulation to adjust accordingly. For laboratory testing, additive repellency was determined by adding the adjusted percent repellency for each dose used in the combination treatment. This "Expected additive repellency" was then compared to the "actual repellency" seen when the combination was tested in the Gupta box.

[1] = human arm in cage, compound alone
[2] = 0.5% of the compound alone on membrane
[3] = 1% of the compound alone on membrane
[4] = DEET Combinations, calculations based on DEET dose
[5] = human arm in cage, DEET dose, DEET alone or in the combination (calculations based on DEET dosage)
[6] = PMD Combinations, calculations based on PMD dose
[7] = human arm in cage, PMD dose, PMD alone or in the combination (calculations based on PMD dosage)

In the case of CC(O)C(=O)O (centres unmarked) [Lactic Acid, Lactic acid], the “% Repelled” value (Aedes aegypti mosquitoes; Lactic Acid alone at Dose 2.7938 % Active (its ED25)) is reported as 25%, the “ED25, Dose (% Lactic Acid)” value (Aedes aegypti mosquitoes; [1]) is reported as 2.794 % Lactic Acid and the “ED50, Dose (% Lactic Acid)” value (Aedes aegypti mosquitoes; [1]) is reported as 6.143 % Lactic Acid. For the same compound, the “ED75, Dose (% Lactic Acid)” value (Aedes aegypti mosquitoes; [1]) was 13.51 % Lactic Acid, the “ED90, Dose (% Lactic Acid)” value (Aedes aegypti mosquitoes; [1]) was 27.45 % Lactic Acid and the “ED95, Dose (% Lactic Acid)” value (Aedes aegypti mosquitoes; [1]) was 41.96 % Lactic Acid.

For CC(=O)CCC=C(C)CCC=C(C)C [Geranyl Acetone, 6,10-dimethyl-5,9-undecadien-2-one], the percent repellency (Aedes aegypti; [2]) was 26.7% and 26.69%, the “% Repelled” value (Aedes aegypti mosquitoes; Geranyl Acetone alone at Dose 0.736 % Active (its ED25)) was 25% and the “ED25, Dose (% Geranyl Acetone)” value (Aedes aegypti mosquitoes; [1]) was 0.736 % Geranyl Acetone. The “ED50, Dose (% Geranyl Acetone)” value (Aedes aegypti mosquitoes; [1]) was 2.831 % Geranyl Acetone, the “ED75, Dose (% Geranyl Acetone)” value (Aedes aegypti mosquitoes; [1]) was 10.889 % Geranyl Acetone and the “ED90, Dose (% Geranyl Acetone)” value (Aedes aegypti mosquitoes; [1]) was 36.608 % Geranyl Acetone. The “ED95, Dose (% Geranyl Acetone)” value (Aedes aegypti mosquitoes; [1]) was 75.631 % Geranyl Acetone.

CCN(CC)C(=O)c1cccc(C)c1 [DEET, N,N-Diethyl-m-toluamide] was tested, and the percent repellency (Aedes aegypti; [2]) was 29.55%, the percent repellency (Aedes aegypti; [3]) was 52.9% and the “ED90 (%AI)” value (Aedes aegypti mosquitoes; [4]) was 1.443 %AI. The Index (Aedes aegypti mosquitoes; [4]) was 10.32, the RR (Aedes aegypti mosquitoes; [4]) was 9.69 and the “% Repelled” value (Aedes aegypti mosquitoes; DEET alone at Dose 0.0351 % Active (its ED25)) was 25%. The “ED25, Dose (% DEET)” value (Aedes aegypti mosquitoes; [5]) was 0.035 % DEET and 0.0351 % DEET, the “ED50, Dose (% DEET)” value (Aedes aegypti mosquitoes; [5]) was 0.1263 % DEET and 0.126 % DEET and the “ED75, Dose (% DEET)” value (Aedes aegypti mosquitoes; [5]) was 0.4552 % DEET. For the same compound, the “ED90, Dose (% DEET)” value (Aedes aegypti mosquitoes; [5]) was 1.4431 % DEET and the “ED95, Dose (% DEET)” value (Aedes aegypti mosquitoes; [5]) was 2.8783 % DEET.

In the case of CC1CCC(C(C)(C)O)C(O)C1 (centres unmarked) [PMD, para-menthane-3,8-diol], the percent repellency (Aedes aegypti; [3]) is reported as 26.35% and 26.4%, the percent repellency (Aedes aegypti; 1.5% of the compound alone on membrane) is reported as 34.6% and the “ED90 (%AI)” value (Aedes aegypti mosquitoes; [6]) is reported as 3.846 %AI. For the same compound, the Index (Aedes aegypti mosquitoes; [6]) was 4.36, the RR (Aedes aegypti mosquitoes; [6]) was 22.94 and the “% Repelled” value (Aedes aegypti mosquitoes; PMD alone at Dose 0.1275 % Active (its ED25)) was 25%. For the same compound, the “ED25, Dose (% PMD)” value (Aedes aegypti mosquitoes; [7]) was 0.128 % PMD and 0.1275 % PMD, the “ED50, Dose (% PMD)” value (Aedes aegypti mosquitoes; [7]) was 0.4128 % PMD and 0.413 % PMD and the “ED75, Dose (% PMD)” value (Aedes aegypti mosquitoes; [7]) was 1.3362 % PMD. The “ED90, Dose (% PMD)” value (Aedes aegypti mosquitoes; [7]) was 3.8464 % PMD and the “ED95, Dose (% PMD)” value (Aedes aegypti mosquitoes; [7]) was 7.2415 % PMD.

With CCCCCCCCC1CCC(=O)O1 (centres unmarked) [Gamma Dodecalactone, gamma-dodecalactone] the “% Repelled” value (Aedes aegypti mosquitoes; Gamma Dodecalactone alone at Dose 0.4177 % Active (its ED25)) was 25%, the “ED25, Dose (% γ Dodecalactone)” value (Aedes aegypti mosquitoes; [1]) was 0.4177 % γ Dodecalactone and the “ED50, Dose (% γ Dodecalactone)” value (Aedes aegypti mosquitoes; [1]) was 1.8022 % γ Dodecalactone. The “ED75, Dose (% γ Dodecalactone)” value (Aedes aegypti mosquitoes; [1]) was 7.7764 % γ Dodecalactone, the “ED90, Dose (% γ Dodecalactone)” value (Aedes aegypti mosquitoes; [1]) was 28.994 % γ Dodecalactone and the “ED95, Dose (% γ Dodecalactone)” value (Aedes aegypti mosquitoes; [1]) was 63.726 % γ Dodecalactone.

Source: EP4775036A2, “SYNERGISTIC FORMULATIONS FOR CONTROL AND REPELLENCY OF BITING ARTHROPODS” (Bedoukian Research, Inc., priority 2020, dated 2022)
